Our source for the ABI1 inhibition values is patent US20180020662A1, “Substituted 1-cycloalkyl-2-oxotetrahydroquinolin-6-ylsulfonamides or salts thereof and use thereof to increase stress tolerance in plants” (BAYER CROPSCIENCE AKTIENGESELLSCHAFT, priority 2015, published 2018).

This experiment deals with T1, phosphatase ABI1 via the co-regulator RCAR11/PYR1 (Arabidopsis thaliana, UniProt O49686+P49597).
T1 sequence (O49686 1-191): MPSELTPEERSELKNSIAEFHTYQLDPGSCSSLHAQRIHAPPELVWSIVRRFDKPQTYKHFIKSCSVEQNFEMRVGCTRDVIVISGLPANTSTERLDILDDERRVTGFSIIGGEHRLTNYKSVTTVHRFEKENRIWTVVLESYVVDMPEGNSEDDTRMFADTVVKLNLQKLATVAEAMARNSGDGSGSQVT
T1 sequence (P49597 1-434): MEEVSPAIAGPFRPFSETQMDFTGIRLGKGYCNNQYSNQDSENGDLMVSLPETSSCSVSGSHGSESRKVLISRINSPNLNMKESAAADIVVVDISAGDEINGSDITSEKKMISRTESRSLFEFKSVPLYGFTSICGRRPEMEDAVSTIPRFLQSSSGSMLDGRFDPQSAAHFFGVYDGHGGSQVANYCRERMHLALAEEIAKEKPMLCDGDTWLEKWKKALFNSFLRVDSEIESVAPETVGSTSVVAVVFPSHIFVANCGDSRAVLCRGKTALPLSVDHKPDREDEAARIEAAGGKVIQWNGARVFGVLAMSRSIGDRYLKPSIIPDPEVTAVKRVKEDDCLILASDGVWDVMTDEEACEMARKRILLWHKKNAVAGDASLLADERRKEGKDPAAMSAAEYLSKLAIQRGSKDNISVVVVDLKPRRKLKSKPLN
In words: In vitro assay: inhibition of ABI1 dephosphorylation of 4-methylumbelliferyl phosphate (MUP), fluorescence. It counts as biochemical. Conditions: concentration of 5 mM of the substance in DMSO and water, 35° C., 20 minutes. The text has this:
Effects of the phytohormone abscisic acid (ABA) on the behavior of plants under abiotic stress and the mechanism of action of ABA are described in the literature (cf. Abrams et al., WO97/23441, Park et al. Science, 2009, 324, 1068; Grill et al. Science, 2009, 324, 1064; Tanokura et al. Biophysics, 2011, 7, 123; Schroeder et al. Plant J. 2010, 61, 290). Therefore, it is possible with the aid of a suitable in vitro test system to derive a correlation between the action of ABA and the stress response of a plant under abiotic stress. In the event of water deficiency (drought stress), plants form the phytohormone abscisic acid (ABA). This binds, along with a co-regulator (Regulatory Component of ABA-Receptor=RCAR according to Grill et al. Science, 2009, 324, 1064 or PYR/PYL according to Cutler et al. Science, 2009, 324, 1068), to a phosphatase (e.g. ABI1, a type 2C protein phosphatase, also abbreviated to PP2C) and inhibits its activity. As a result, a “downstream” kinase (e.g. SnRK2) is no longer dephosphorylated. This kinase, which is thus active, via phosphorylation of transcription factors (e.g. AREB/ABF, cf. Yoshida et al Plant J. 2010, 61, 672), switches on a genetic protection program to increase drought stress tolerance. The assay described hereinafter utilizes the inhibition of the phosphatase ABI1 via the co-regulator RCAR11/PYR1 aus Arabidopsis thaliana. For the determination of activity, the dephosphorylation of 4-methylumbelliferyl phosphate (MUP) was measured at 460 nm. The in vitro assay was conducted in Greiner 384-well PS microplates F-well, using two controls: a) 0.5% dimethyl sulfoxide (DMSO) and b) 5 μM abscisic acid (ABA). The assay described here was generally conducted with substance concentrations of the appropriate chemical test substances in a concentration range of 0.1 μM to 100 μM in a solution of DMSO and water. The substance solution thus obtained, if necessary, was stirred with esterase from porcine liver (EC 3.1.1.1) at room temperature for 3 h and centrifuged at 4000 rpm for 30 min. A total volume of 45 μl was introduced into each cavity of the microplate, having the following composition: • 1) 5 μl of substance solution, i.e. a) DMSO 5% or b) abscisic acid solution or c) the corresponding example compound of the general formula (I) dissolved in 5% DMSO. • 2) 20 μl of enzyme buffer mix, composed of a) 40% by vol. of enzyme buffer (10 ml contain equal proportions by volume of 500 mM Tris-HCl pH 8, 500 mM NaCl, 3.33 mM MnCl2, 40 mM dithiothreitol (DTT)), b) 4% by vol. of ABI1 dilution (protein stock solution was diluted so as to give, after addition, a final concentration in the assay of 0.15 μg ABI1/well), c) 4% by vol. of RCAR11 dilution (enzyme stock was diluted so as to give, on addition of the dilution to the enzyme buffer mix, a final concentration in the assay of 0.30 μg enzyme/well), d) 5% by vol. of Tween20 (1%), e) 47% by vol. H2O bi-dist. • 3) 20 μl of substrate mix, composed of a) 10% by vol. of 500 mM Tris-HCl pH 8, b) 10% by vol. of 500 mM NaCl, c) 10% by vol. of 3.33 mM MnCl2, d) 5% by vol. of 25 mM MUP, 5% by vol. of Tween20 (1%), 60% by vol. of H2O bi-dist.
Enzyme buffer mix and substrate mix were made up 5 minutes prior to the addition and warmed to a temperature of 35° C. On completion of pipetting of all the solutions and on completion of mixing, the plate was incubated at 35° C. for 20 minutes. Finally, a relative fluorescence measurement was made at 35° C. with a BMG Labtech “POLARstar Optima” microplate reader using a 340/10 nm excitation filter and a 460 nm emission filter. The efficacy of the compounds of the general formula (I) is reported in the table which follows using abscisic acid […] as comparative substance (no. 38) according to the following classification: ++++(inhibition ≧90%), +++(90% >inhibition ≧70%), ++(70% >inhibition ≧50%), +(50% >inhibition ≧30%). […]
For the compound `O=C1CCc2cc(NS(=O)(=O)Cc3ccc(Cl)cc3)ccc2N1C1CC2(CCC2)C1` [A33-165], the ABI1 inhibition result is given as “+++ (90% >inhibition ≧70%)”.
Turning to `CC1CC(N2C(=O)CCc3cc(NS(=O)(=O)Cc4ccc(C(C)(C)C)cc4)ccc32)C1` (centres unmarked) [A26-332], the ABI1 inhibition entry is “++++ (inhibition ≧90%)”.
As for `Cc1ccc(S(=O)(=O)Nc2ccc3c(c2)CCC(=O)N3C23CC(C2)C3)cc1` [A30-50], the ABI1 inhibition result is “++ (70% >inhibition ≧50%)”.
For `O=C1CCc2cc(NS(=O)(=O)Cc3ccc(F)cc3)ccc2N1C1CC1C1CC1` (centres unmarked) [A16-158] the value was “+++ (90% >inhibition ≧70%)”; for `O=C1CCc2cc(NS(=O)(=O)Cc3cc(F)cc(F)c3)ccc2N1C1CC1C1CC1` (centres unmarked) [A16-164], “++ (70% >inhibition ≧50%)”; for `CC1=CC(=O)CC(C)(C)[C@@]1(O)/C=C/C(C)=C\C(=O)O` [abscisic acid, reference compound], “++++ (inhibition ≧90%)”.
Turning to `Cc1ccc(CS(=O)(=O)Nc2ccc3c(c2)CCC(=O)N3C2CC2C2CC2)cc1` (centres unmarked) [A16-152, N-{1-[1,1′-bi(cyclopropyl)-2-yl]-2-oxo-1,2,3,4-tetrahydroquinolin-6-yl}-1-(4-methylphenyl)methanesulfonamide], the ABI1 inhibition entry is listed as “++++ (inhibition ≧90%)”.
With `CC1CC(N2C(=O)CCc3cc(NS(=O)(=O)Cc4cccc(C#N)c4)ccc32)C1` (centres unmarked) [A26-182], the ABI1 inhibition result is “++++ (inhibition ≧90%)”.
Regarding `Cc1ccc(CS(=O)(=O)Nc2ccc3c(c2)CCC(=O)N3C2CC(C)C2)cc1` (centres unmarked) [A26-152], the ABI1 inhibition result was “++++ (inhibition ≧90%)”.
The result for `O=C1CCc2cc(NS(=O)(=O)Cc3cccc(Cl)c3)ccc2N1C12CC(C1)C2` [A30-166] reads “++ (70% >inhibition ≧50%)”; that for `Cc1ccc(CS(=O)(=O)Nc2ccc3c(c2)CCC(=O)N3C23CC(C2)C3)cc1` [A30-152], “++++ (inhibition ≧90%)”.
Consider `O=C1CCc2cc(NS(=O)(=O)Cc3ccc(C(F)(F)F)cc3)ccc2N1C12CC(C1)C2` [A30-178, N-[1-(Bicyclo[1.1.1]pent-1-yl)-2-oxo-1,2,3,4-tetrahydroquinolin-6-yl]-1-[4-(trifluoromethyl)phenyl]methanesulfonamide], for which the ABI1 inhibition result is “++++ (inhibition ≧90%)”.
For `O=C1CCc2cc(NS(=O)(=O)Cc3ccc(Cl)cc3)ccc2N1C1CC1C1CC1` (centres unmarked) [A16-165], the ABI1 inhibition result is “++++ (inhibition ≧90%)”.
As for `CCc1ccc(CS(=O)(=O)Nc2ccc3c(c2)CCC(=O)N3C2(C3CC3)CC2)cc1` [A3-325], the ABI1 inhibition result is recorded as “++++ (inhibition ≧90%)”.
As to `N#Cc1ccc(CS(=O)(=O)Nc2ccc3c(c2)CCC(=O)N3C23CC(C2)C3)cc1` [A30-181], the ABI1 inhibition result is listed as “++++ (inhibition ≧90%)”.
For `O=C1CCc2cc(NS(=O)(=O)Cc3cccc(Cl)c3)ccc2N1C1(C2CC2)CC1` [A3-166], the ABI1 inhibition entry is recorded as “+++ (90% >inhibition ≧70%)”.
In the case of `CC1CC(N2C(=O)CCc3cc(NS(=O)(=O)Cc4cc(F)cc(F)c4)ccc32)C1` (centres unmarked) [A26-164], the ABI1 inhibition result is listed as “++++ (inhibition ≧90%)”.
As to `CC1CC(N2C(=O)CCc3cc(NS(=O)(=O)Cc4ccc([N+](=O)[O-])cc4)ccc32)C1` (centres unmarked) [A26-175], the ABI1 inhibition entry is reported as “++++ (inhibition ≧90%)”.
For `Cc1cccc(CS(=O)(=O)Nc2ccc3c(c2)CCC(=O)N3C2(C3CC3)CC2)c1` [A3-153] the value was “+++ (90% >inhibition ≧70%)”; for `CC1(N2C(=O)CCc3cc(NS(=O)(=O)Cc4ccc(F)cc4)ccc32)CC1` [A1-158], “++++ (inhibition ≧90%)”.
For `CC(C)(C)c1ccc(CS(=O)(=O)Nc2ccc3c(c2)CCC(=O)N3C2CC2C2CC2)cc1` (centres unmarked) [A16-332], the ABI1 inhibition entry is “+++ (90% >inhibition ≧70%)”.
For `N#Cc1ccc(CS(=O)(=O)Nc2ccc3c(c2)CCC(=O)N3C2CC3(CCC3)C2)cc1` [A33-181, 1-(4-Cyanophenyl)-N-[2-oxo-1-(spiro[3.3]hept-2-yl)-1,2,3,4-tetrahydroquinolin-6-yl]methanesulfonamide], the ABI1 inhibition entry is recorded as “+++ (90% >inhibition ≧70%)”.
Turning to `Cc1ccc(CS(=O)(=O)Nc2ccc3c(c2)CCC(=O)N3C2(C3CC3)CC2)cc1` [A3-152, N-{1-[1,1′-bi(cyclopropyl)-1-yl]-2-oxo-1,2,3,4-tetrahydroquinolin-6-yl}-1-(4-methylphenyl)methanesulfonamide], the ABI1 inhibition entry was “++++ (inhibition ≧90%)”.
Take `O=C1CCc2cc(NS(=O)(=O)Cc3cccc(F)c3)ccc2N1C12CC(C1)C2` [A30-159]: the ABI1 inhibition entry was “+++ (90% >inhibition ≧70%)”.
For `Cc1ccc(CS(=O)(=O)Nc2ccc3c(c2)CCC(=O)N3C2(C)CC2)cc1` [A1-152] the value was “++++ (inhibition ≧90%)”; for `CC1CC(N2C(=O)CCc3cc(NS(=O)(=O)Cc4ccc(Cl)cc4)ccc32)C1` (centres unmarked) [A26-165, 1-(4-Chlorophenyl)-N-[1-(3-methylcyclobutyl)-2-oxo-1,2,3,4-tetrahydroquinolin-6-yl]methanesulfonamide], “++++ (inhibition ≧90%)”.
